This note sets out measurements from patent publication EP2208725A1, “Novel specific inhibitors of ubiquitin specific protease 7, the pharmaceutical compositions thereof and their therapeutic applications” (Hybrigenics S.A., priority 2009, dated 2010).

Test [1] deals with T1, human USP7 (Homo sapiens, UniProt Q93009).
T1 construct: Full-length wild-type human USP7; His (N); made in house; host or cells: Spodoptera frugiperda Sf9 (baculovirus, pFastBac-HT)
Put plainly: USP7 activity assay (Ub-AMC). It counts as biochemical. The note with it: 300 nM Ub-AMC, 100 pM enzyme; compounds tested from 200 µM to 91 nM; unit inferred; read-out: Inhibition of cysteine protease activities: USP7. The text has this: The cDNA encoding USP7 was obtained by PCR amplification from placenta mRNA. USP7 cDNA was subcloned by PCR into a baculovirus expression vector (pFastBac-HT; Invitrogen). Full-length wild-type human USP7 and its catalytic mutant (cysteine 223 replaced by alanine, C223A) were produced as N-terminally His-tagged fusions in Spodoptera frugiperda cells (Sf9, Invitrogen), using the Bac-to-Bac Baculovirus system from Invitrogen according to the manufacturer's instructions. pFastBac-HT-B-USP7 was used to transform DH10bac cells (Invitrogen), and blue/white selection was carried out on X-gal/IPTG agar plates. Bacmid DNA was prepared by an alkaline lysis procedure. The integrity of the bacmid minipreps and their orientation were checked by PCR, using generic and specific primers. Sf9 cells were cultured in InsectXpress medium (Cambrex) at 27°C and transfected with the corresponding bacmid, using GeneShuttle 40 (Q-BIOgen). Viruses were recovered in the supernatant 72 h after transfection. Viruses were amplified by infecting Sf9 cells in 50 ml InsectXpress medium in a 150 cm^2 cell culture flask with 500 µl of the supernatant from transfected Sf9 cells. Following the second round of amplification, Sf9 cells were recovered by rapid SDS lysis, boiled for 5 min at 100°C, sonicated briefly and centrifuged for 20 min at 14,000 g. Expression levels in infected Sf9 cells were compared with those in uninfected cells. […] Beads were extensively washed (50 mM sodium phosphate buffer pH 7.0, 500 mM NaCl, 10 mM Imidazole, 0.5% Triton X-100 and 10% glycerol) and bound proteins were eluted in wash buffer supplemented with 250 mM Imidazole (Sigma). Eluted fractions were resolved on 4-12% NuPAGE gels (Novex, Invitrogen). Fractions containing high concentrations of purified proteins (purity > 95%) were dialyzed (20 mM Tris HCl pH 7.6, 200 mM NaCl, 1 mM DTT, 1 mM EDTA and 10% glycerol) were aliquoted and snap frozen in liquid nitrogen before storage at -80°C.
USP7 was diluted in USP buffer (50 mM Tris HCl; 0.5 mM EDTA; 5 mM DTT; 0.01 % Triton X-100; Bovine Serum Albumin 0.05 mg.ml^-1 pH7.6). Compounds stocks (100 mM) were stored at -20°C in DMSO. Compounds were tested at different concentrations: from 200 µM to 91 nM.
Reactions were performed as duplicates in Black LJL 96 well plates (HE microplates; Molecular Devices; 20 µl final reaction volume). The substrate concentration for USP7 was 300 nM Ub-AMC (Chem. Biol., 2003, 10, p. 837-846) (Boston Biochem). The concentrations of the enzyme (USP7) in specificity assays was 100 pM. The concentrations were determined in order to perform specificity assays under initial velocities at fixed substrate concentration. Compounds were pre-incubated with enzymes for 30 minutes at 25°C. Reactions were initiated by addition of substrate to the plates containing the enzymes (+/- compounds) diluted in assay buffer. Reactions were incubated for 60 minutes at 37°C. Reactions were stopped by adding acetic acid (100 mM final). Readings were performed on a Pherastar Fluorescent Reader (BMG). λ […]. Data (mean values +/- standard deviation) were analyzed as % of control (no compound) and plotted as percentage versus the Log of the compound concentration using GraphPad (Prism). Data were fitted to a sigmoidal model (variable slope).

Test [2] deals with T2, UCH-L3 (Homo sapiens, UniProt P15374).
T2 sequence (P15374 1-230): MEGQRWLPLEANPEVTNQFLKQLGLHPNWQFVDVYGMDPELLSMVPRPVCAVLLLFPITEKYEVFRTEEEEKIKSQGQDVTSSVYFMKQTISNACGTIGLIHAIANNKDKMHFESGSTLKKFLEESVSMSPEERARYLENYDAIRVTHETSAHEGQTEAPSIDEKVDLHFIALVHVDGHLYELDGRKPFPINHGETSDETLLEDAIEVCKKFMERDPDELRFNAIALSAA
Put plainly: UCH-L3 activity assay (Ub-AMC). The test is classed as biochemical. The note with it: 400 nM Ub-AMC, 13 pM enzyme; compounds tested from 200 µM to 91 nM; unit inferred; read-out: Inhibition of cysteine protease activities: Uch-L3. As for the experimental part: UCH-L3 was diluted in USP buffer (50 mM Tris HCl; 0.5 mM EDTA; 5 mM DTT; 0.01% Triton X-100; Bovine Serum Albumin 0.05 mg.ml^-1 pH7.6). Compounds stocks (100 mM) were stored at -20°C in DMSO. Compounds were tested at different concentrations: from 200 µM to 91 nM. Reactions were performed as duplicates in Black LJL 96 well plates (HE microplates; Molecular Devices; 20 µl final reaction volume). The substrate concentration for UCH-L3 was 400 nM Ub-AMC (Boston Biochem). The concentration of the enzyme (UCH-L3) in specificity assays was 13 pM. The concentrations were determined in order to perform specificity assays under initial velocities at fixed substrate concentration. Compounds were pre-incubated with enzymes for 30 minutes at 25°C. Reactions were initiated by addition of substrate to the plates containing the enzymes (+/- compounds) diluted in assay buffer. Reactions were incubated for 60 minutes at 37°C. Reactions were stopped by adding acetic acid (100 mM final). Readings were performed on a Pherastar Fluorescent Reader (BMG). λ Emission 380 nm; λ Excitation = 460 nm. Data (mean values +/- standard deviation) were analyzed as % of control (no compound) and plotted as percentage versus the Log of the compound concentration using GraphPad (Prism). Data were fitted to a sigmoidal model (variable slope).

Molecules are shown by their SMILES. Some results are limits rather than exact numbers.

T1 sequence (Q93009 whole entry): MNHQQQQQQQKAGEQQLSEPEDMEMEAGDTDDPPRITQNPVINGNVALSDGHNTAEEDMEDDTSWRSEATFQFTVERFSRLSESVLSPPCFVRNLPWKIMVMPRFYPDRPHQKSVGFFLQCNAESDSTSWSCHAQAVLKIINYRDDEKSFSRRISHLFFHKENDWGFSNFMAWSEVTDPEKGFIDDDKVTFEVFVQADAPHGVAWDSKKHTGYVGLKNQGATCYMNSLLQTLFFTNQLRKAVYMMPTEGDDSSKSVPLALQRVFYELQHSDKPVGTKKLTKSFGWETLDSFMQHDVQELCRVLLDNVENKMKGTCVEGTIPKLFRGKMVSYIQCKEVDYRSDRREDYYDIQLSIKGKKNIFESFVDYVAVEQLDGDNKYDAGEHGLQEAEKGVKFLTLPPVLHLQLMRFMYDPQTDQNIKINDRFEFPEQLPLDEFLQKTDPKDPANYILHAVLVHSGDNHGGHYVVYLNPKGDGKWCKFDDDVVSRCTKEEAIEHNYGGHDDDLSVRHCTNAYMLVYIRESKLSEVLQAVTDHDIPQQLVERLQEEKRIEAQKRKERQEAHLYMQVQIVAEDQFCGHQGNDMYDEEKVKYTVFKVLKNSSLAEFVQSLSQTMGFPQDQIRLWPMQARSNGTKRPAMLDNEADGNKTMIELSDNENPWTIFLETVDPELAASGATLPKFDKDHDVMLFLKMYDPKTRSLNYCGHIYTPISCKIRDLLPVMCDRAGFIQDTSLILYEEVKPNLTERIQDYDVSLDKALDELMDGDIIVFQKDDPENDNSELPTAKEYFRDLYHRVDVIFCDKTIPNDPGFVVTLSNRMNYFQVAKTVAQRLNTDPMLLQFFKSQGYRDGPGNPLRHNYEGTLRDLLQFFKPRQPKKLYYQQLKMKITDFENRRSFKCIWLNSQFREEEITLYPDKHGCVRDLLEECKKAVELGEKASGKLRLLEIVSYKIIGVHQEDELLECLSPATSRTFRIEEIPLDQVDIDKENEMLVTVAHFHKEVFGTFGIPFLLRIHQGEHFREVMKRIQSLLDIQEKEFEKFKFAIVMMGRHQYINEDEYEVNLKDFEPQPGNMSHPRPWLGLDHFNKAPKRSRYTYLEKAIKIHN

For `CC(=O)C1=C(O)C(=O)N(CCc2ccc(Cl)cc2)C1c1ccc(Br)cc1` (centres unmarked) [Example 25, 4-acetyl-5-(4-bromo-phenyl)-1-[2-(4-chloro-phenyl)-ethyl]-3-hydroxy-1,5-dihydro-pyrrol-2-one], the figures for the IC50 in test [1] and in test [2] were 3.1 µM and over 200 µM, respectively.
On the same counts, the results for `CC(=O)C1=C(O)C(=O)N(CCc2ccc(Br)cc2)C1c1ccc(Br)cc1` (centres unmarked) [Example 26, 4-acetyl-5-(4-bromo-phenyl)-1-[2-(4-bromo-phenyl)-ethyl]-3-hydroxy-1,5-dihydro-pyrrol-2-one] are 2.7 µM and over 200 µM.
As for `CC(=O)C1=C(O)C(=O)N(CCc2ccc(Cl)c(Cl)c2)C1c1ccc(Br)cc1` (centres unmarked) [Example 28, 4-acetyl-5-(4-bromo-phenyl)-1-[2-(3,4-dichloro-phenyl)-ethyl]-3-hydroxy-1,5-dihydro-pyrrol-2-one], the IC50 was 1.61 µM in test [1] and over 200 µM in test [2].
On to `COc1cccc(CCN2C(=O)C(O)=C(C(C)=O)C2c2ccc(Br)cc2)c1` (centres unmarked) [Example 30, 4-acetyl-5-(4-bromo-phenyl)-3-hydroxy-1-[2-(3-methoxyphenyl)-ethyl]-1,5-dihydro-pyrrol-2-one], for which the IC50 in test [1] is 11.1 µM; in test [2], over 200 µM.
For `COc1ccc(CCN2C(=O)C(O)=C(C(C)=O)C2c2ccc(Br)cc2)cc1` (centres unmarked) [Example 32, 4-acetyl-5-(4-bromo-phenyl)-3-hydroxy-1-[2-(4-methoxyphenyl)-ethyl]-1,5-dihydro-pyrrol-2-one], in that order: 5.28 µM and over 200 µM.
For `CC(=O)C1=C(O)C(=O)N(CCc2ccc(F)cc2)C1c1ccc(Br)cc1` (centres unmarked) [Example 33, 4-acetyl-5-(4-bromo-phenyl)-3-hydroxy-1-[2-(4-fluorophenyl)-ethyl]-1,5-dihydro-pyrrol-2-one], in that order: 3.05 µM and over 200 µM.
With `CCOc1ccc(CCN2C(=O)C(O)=C(C(C)=O)C2c2ccc(Br)cc2)cc1` (centres unmarked) [Example 34, 4-acetyl-5-(4-bromo-phenyl)-3-hydroxy-1-[2-(4-ethoxy-phenyl)-ethyl]-1,5-dihydro-pyrrol-2-one], the figures for the IC50 in test [1] and in test [2] were 6.6 µM and over 200 µM, respectively.
On the same counts, the results for `CC(=O)C1=C(O)C(=O)N(CCc2ccccc2)C1c1ccc2c(c1)OCO2` (centres unmarked) [Example 37, 4-acetyl-5-benzo[1,3]dioxol-5-yl-3-hydroxy-1-phenethyl-1,5-dihydro-pyrrol-2-one] are 7.03 µM and over 200 µM.
On the same counts, the results for `CC(=O)C1=C(O)C(=O)N(CCc2ccccc2)C1c1ccc(Br)c(Br)c1` (centres unmarked) [Example 41, 4-acetyl-5-(3,4-dibromo-phenyl)-3-hydroxy-1-phenethyl-1,5-dihydro-pyrrol-2-one] are 8.98 µM and over 200 µM.
On the same counts, the results for `CC(=O)C1=C(O)C(=O)N(CCc2ccccc2)C1c1cccnc1Cl` (centres unmarked) [Example 42, 4-acetyl-5-(2-chloro-pyridin-3-yl)-3-hydroxy-1-phenethyl-1,5-dihydro-pyrrol-2-one] are 12 µM and over 200 µM.
Turning to `CC(=O)C1=C(O)C(=O)N(CCc2ccc(Br)cc2)C1c1ccc(Cl)cc1` (centres unmarked) [Example 45, 4-Acetyl-5-(4-chlorophenyl)-1-[2-(4-bromophenyl)-ethyl]-3-hydroxy-1,5-dihydro-pyrrol-2-one], the IC50 in test [1] is 4.2 µM; in test [2], over 200 µM.
On the same counts, the results for `CC(=O)C1=C(O)C(=O)N(CCc2ccc(Cl)cc2)C1c1ccc(Cl)cc1` (centres unmarked) [Example 46, 4-Acetyl-5-(4-chlorophenyl)-1-[2-(4-chlorophenyl)-ethyl]-3-hydroxy-1,5-dihydro-pyrrol-2-one] are 4.4 µM and over 200 µM.
For `CC(=O)C1=C(O)C(=O)N(CCc2ccc(Cl)cc2Cl)C1c1ccc(Br)cc1` (centres unmarked) [Example 47, 4-Acetyl-5-(4-bromophenyl)-1-[2-(2,4-dichlorophenyl)-ethyl]-3-hydroxy-1,5-dihydro-pyrrol-2-one], in that order: 1.9 µM and over 200 µM.
